Target: T1, μ-opioid receptor (Rattus norvegicus, UniProt P33535)
T1 construct: from tissue; host or cells: rat (Sprague Dawley) thalamic membranes
Experiment: Stimulation of [35S]GTPγS binding to rat thalamic membranes (receptor activation of G proteins)
Type: biochemical, Rat (Sprague Dawley)

T1 sequence (P33535 whole entry): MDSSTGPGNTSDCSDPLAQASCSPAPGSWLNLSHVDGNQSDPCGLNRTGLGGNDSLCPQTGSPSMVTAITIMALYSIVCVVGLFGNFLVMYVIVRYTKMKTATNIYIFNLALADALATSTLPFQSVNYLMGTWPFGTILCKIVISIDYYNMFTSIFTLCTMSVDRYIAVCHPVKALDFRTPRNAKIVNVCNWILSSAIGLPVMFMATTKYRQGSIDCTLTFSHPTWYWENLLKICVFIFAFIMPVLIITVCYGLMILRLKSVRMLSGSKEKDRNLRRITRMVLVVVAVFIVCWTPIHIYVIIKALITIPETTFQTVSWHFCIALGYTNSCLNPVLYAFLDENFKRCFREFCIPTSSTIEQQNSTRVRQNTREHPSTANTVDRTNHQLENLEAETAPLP

Structure (SMILES)	stimulation of [35S]GTPγS binding (even at concentrations above 100 μM)	agonist efficacy at the μ-opioid receptor (conclusion from [35S]GTPγS binding results)	level of [35S]GTPγS binding stimulated vs maximal number of binding sites occupied after DAMGO stimulation (relative to DAMGO stimulation of G proteins)
CC[C@H]1C[C@H]2C[C@H]3c4[nH]c5ccc(OC)cc5c4CCN(C2)C13 [Ibogaine]	weak stimulation		
CC[C@H]1C[C@H]2C[C@H]3c4[nH]c5ccc(O)cc5c4CCN(C2)C13 [Noribogaine, 12-hydroxyibogamine]		full agonist	in close agreement

Reference: patent publication US8178524B2, “Noribogaine in the treatment of pain and drug addiction” (Demerx, Inc., priority 1997, dated 2012)
